What all share (assay type): cell-based
Assay [1] has as its target T1, P2X4 (Homo sapiens, UniProt Q99571).
T1 sequence (Q99571 1-388): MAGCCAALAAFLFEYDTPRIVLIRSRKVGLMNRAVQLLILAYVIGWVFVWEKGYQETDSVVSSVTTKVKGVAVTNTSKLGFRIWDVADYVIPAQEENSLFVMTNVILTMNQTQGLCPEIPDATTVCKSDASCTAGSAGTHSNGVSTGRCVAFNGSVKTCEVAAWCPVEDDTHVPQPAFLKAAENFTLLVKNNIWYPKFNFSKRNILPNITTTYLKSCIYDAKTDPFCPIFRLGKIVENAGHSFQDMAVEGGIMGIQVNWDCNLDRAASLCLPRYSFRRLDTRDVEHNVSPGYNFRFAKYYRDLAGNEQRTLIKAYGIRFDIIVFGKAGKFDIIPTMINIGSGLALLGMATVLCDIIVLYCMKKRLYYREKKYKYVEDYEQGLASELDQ
As to the kind of experiment: Assay A: human P2X4 receptor cell line, FLIPR calcium assay (Fluo-8, agonist Bz-ATP at EC80). Conditions: HEK human P2X4 cells, Fluo-8 FLIPR; for IC50: Bz-ATP at EC80, average values; for Emax: percentage of maximal inhibition, read-out: human P2X4 Assay A avg Efficacy. On the set-up: host or cells: HEK 293 (recombinant, constitutively expressing; with mitochondrial photina in Assay B). Put shortly:
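HEK cells expressing human P2X4 (20,000/well, plated ~20 h earlier) loaded 30 min with 5 μM Fluo-8 in HBSS/HEPES buffer with 1.8 mM CaCl2, 1 mM MgCl2, 2 mM probenecid, pH 7.4. Antagonist preincubated 30 min at room temperature (0.5% DMSO), then Bz-ATP at EC80. Peak fluorescence over 120 s, normalized to DMSO; triplicate IC50 and Hill fits.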

Another assay concerns the target T2, mouse P2X4 receptors (Mus musculus, UniProt Q9JJX6).
T2 construct: host or cells: HEK 293 (recombinant, constitutively expressing)
T2 sequence (Q9JJX6 1-388): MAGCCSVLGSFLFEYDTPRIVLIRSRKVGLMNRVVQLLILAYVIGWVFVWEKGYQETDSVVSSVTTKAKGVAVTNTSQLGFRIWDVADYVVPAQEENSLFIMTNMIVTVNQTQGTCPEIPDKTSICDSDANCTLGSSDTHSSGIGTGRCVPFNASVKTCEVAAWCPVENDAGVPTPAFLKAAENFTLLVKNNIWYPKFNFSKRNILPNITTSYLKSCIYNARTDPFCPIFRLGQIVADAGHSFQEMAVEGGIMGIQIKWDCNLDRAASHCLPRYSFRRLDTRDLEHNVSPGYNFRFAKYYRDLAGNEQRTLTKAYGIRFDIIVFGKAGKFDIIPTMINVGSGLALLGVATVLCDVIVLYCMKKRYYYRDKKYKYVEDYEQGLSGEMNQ
Put plainly: Assay B: mouse P2X4 receptor cell line, Fluo8 fluorescence FLIPR (agonist Bz-ATP at EC50). Conditions: HEK mouse P2X4 cell line, agonist Bz-ATP at EC50, average. How it is done:
The identification of agonists and antagonists of the P2X4 receptor from humans and […] also the quantification of the activity of the compounds of the invention was performed by use of recombinant cell lines. […] The test cell lines constitutively express the mouse or human P2X4 receptors. Stimulation of the receptors with an agonist leads to a conformational change of P2X4 and influx of extracellular calcium ions through the ion channel. The cytoplasmatic calcium transient is detected via the calcium sensitive dye Fluo8 for the mouse P2×4 cell line or in case of the human P2×4 cell line a stably expressed calcium-sensitive photoprotein, mitochondrial photina, which, after reconstitution with the cofactor coelenterazine, emits light in dependence of calcium binding [Bovolenta S, Foti M, Lohmer S, Corazza S., J Biomol Screen. […] The strength of Fluo8 fluorescence signal or photina luminescence signal corresponds to the level of receptor activation. An inhibitor would decrease the signal depending on its potency and concentration.
On the day of the assay medium is exchanged by Fluo8 containing buffer for 30 minutes. In the fluorescence reader (FLIPR) test substances in various concentrations are added for 10 minutes. After baseline measurement the agonist Bz-ATP at EC50 concentration is applied and fluorescence is measured immediately.

The target of assay [2] is T1, P2X4. As to the kind of experiment: Assay B: human P2X4 receptor cell line, mitochondrial photina luminescence (agonist Bz-ATP at EC50). Further details: host or cells: HEK 293 (recombinant, constitutively expressing; with mitochondrial photina in Assay B). The conditions noted are these: HEK human P2X4 cell line, photina luminescence, agonist Bz-ATP at EC50, average; for Emax: read-out: human P2X4 Assay B avg Efficacy. The method, boiled down: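 Recombinant cell line constitutively expressing human P2X4 and mitochondrial photina photoprotein, reconstituted with coelenterazine. Receptor stimulated with Bz-ATP at EC50; calcium influx read immediately as luminescence.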

Turning to `NS(=O)(=O)c1cc(NC(=O)Cc2ccccc2Cl)ccc1Oc1ccc(F)cc1` [Example 012, 2-(2-chlorophenyl)-N-[4-(4-fluorophenoxy)-3-sulfamoylphenyl]acetamide], on P2X4 [1], the IC50 (usually the concentration that inhibits the measured activity by half) was 20 nM and the Emax is 70%. On mouse P2X4 receptors, the IC50 was 1240 nM and the “mouse P2X4 Assay B avg Efficacy” value was found to be 44%. Moreover, on P2X4 [2], the 50% inhibitory concentration (IC50) worked out at 43 nM and the Emax amounted to 56%.

As to `NS(=O)(=O)c1cc(NC(=O)Cc2ccccc2Cl)ccc1Oc1ccccn1` [Example 013, 2-(2-Chlorophenyl)-N-[4-(pyridin-2-yloxy)-3-sulfamoylphenyl]acetamide], the Emax at P2X4 [1] turned out to be 93%. For the same molecule, at mouse P2X4 receptors, the IC50 was above 16000 nM and the “mouse P2X4 Assay B avg Efficacy” value was 31%. The Emax at P2X4 [2] came to 71%.

Turning to `NS(=O)(=O)c1cc(NC(=O)Cc2ccccc2Cl)ccc1Oc1ccccc1` [Example 014, 2-(2-Chlorophenyl)-N-(4-phenoxy-3-sulfamoylphenyl)acetamide], the Emax was 85% at P2X4 [1] and 70% at P2X4 [2]. Also, the IC50 on mouse P2X4 receptors was above 16000 nM. Further, the “mouse P2X4 Assay B avg Efficacy” value at mouse P2X4 receptors worked out at 25%.

With `NC(=O)c1cccc(Oc2ccc(NC(=O)Cc3ccccc3Cl)cc2S(N)(=O)=O)c1` [Example 017, 3-(4-{[(2-Chlorophenyl)acetyl]amino}-2-sulfamoylphenoxy)benzamide], on P2X4 [1], the IC50 came out at 61 nM and the Emax was determined as 86%. Moreover, at mouse P2X4 receptors, the IC50 worked out at 805 nM and the “mouse P2X4 Assay B avg Efficacy” value came out at 44%. Also, on P2X4 [2], the 50% inhibitory concentration (IC50) came to 55 nM and the Emax turned out to be 65%.

Turning to `NS(=O)(=O)c1cc(NC(=O)Cc2ccccc2Cl)ccc1Oc1cnc(Cl)c(Cl)c1` [Example 036, 2-(2-Chlorophenyl)-N-{4-[(5,6-dichloropyridin-3-yl)oxy]-3-sulfamoylphenyl}acetamide], at P2X4 [1], the IC50 came out at 106 nM and the Emax worked out at 81%. Further, at mouse P2X4 receptors, the IC50 is above 50000 nM and the “mouse P2X4 Assay B avg Efficacy” value came out at 15%. At P2X4 [2], the IC50 stood at 68 nM and the Emax turned out to be 79%.

For `NS(=O)(=O)c1cc(NC(=O)Cc2ccccc2Cl)ccc1Oc1ccc(-n2ccnc2)cc1` [Example 042, 2-(2-Chlorophenyl)-N-{4-[4-(1H-imidazol-1-yl)phenoxy]-3-sulfamoylphenyl}acetamide], on P2X4 [1], the half-inhibitory concentration (IC50) was determined as 241 nM and the Emax worked out at 89%. Further, on mouse P2X4 receptors, the IC50 was above 50000 nM and the “mouse P2X4 Assay B avg Efficacy” value came out at 54%. In addition, on P2X4 [2], the IC50 was 460 nM and the Emax worked out at 90%.

For the molecule `NS(=O)(=O)c1cc(NC(=O)Cc2cccc(F)c2Cl)ccc1Oc1cccc(Cl)c1` [Example 098, 2-(2-Chloro-3-fluorophenyl)-N-[4-(3-chlorophenoxy)-3-sulfamoylphenyl]acetamide], the figures for the IC50 on P2X4 [1], at mouse P2X4 receptors and on P2X4 [2] were 7 nM, 387 nM and 25 nM, respectively. The Emax turned out to be 95% at P2X4 [1] and 57% on P2X4 [2]. Moreover, the “mouse P2X4 Assay B avg Efficacy” value on mouse P2X4 receptors was found to be 69%.

For `NS(=O)(=O)c1cc(NC(=O)Cc2cc(F)ccc2Cl)ccc1Oc1cccc(Cl)c1` [Example 099, 2-(2-Chloro-5-fluorophenyl)-N-[4-(3-chlorophenoxy)-3-sulfamoylphenyl]acetamide], at P2X4 [1], the IC50 was found to be 168 nM and the Emax worked out at 77%. Further, at mouse P2X4 receptors, the 50% inhibitory concentration (IC50) came to 808 nM and the “mouse P2X4 Assay B avg Efficacy” value is 67%. Besides, at P2X4 [2], the IC50 turned out to be 22 nM and the Emax worked out at 55%.

For the molecule `NS(=O)(=O)c1cc(NC(=O)Cc2c(Cl)cccc2Cl)ccc1Oc1cccc(Cl)c1` [Example 104, N-[4-(3-Chlorophenoxy)-3-sulfamoylphenyl]-2-(2,6-dichlorophenyl)acetamide], at P2X4 [1], the Emax stood at 78%. Also, on mouse P2X4 receptors, the IC50 was determined as 604 nM and the “mouse P2X4 Assay B avg Efficacy” value came out at 59%. At P2X4 [2], the Emax came out at 60%.

With `NS(=O)(=O)c1cc(NC(=O)Cc2ccccc2Cl)ccc1OCc1ccccc1F` [Example 137, 2-(2-Chlorophenyl)-N-{4-[(2-fluorobenzyl)oxy]-3-sulfamoylphenyl}acetamide], at P2X4 [1], the IC50 was determined as 35 nM and the Emax worked out at 88%. Also, at mouse P2X4 receptors, the IC50 was 1750 nM and the “mouse P2X4 Assay B avg Efficacy” value came to 66%. On P2X4 [2], the IC50 stood at 33 nM and the Emax came out at 98%.

`N#Cc1ccc(COc2ccc(NC(=O)Cc3ccccc3Cl)cc2S(N)(=O)=O)cc1` [Example 138, 2-(2-Chlorophenyl)-N-{4-[(4-cyanobenzyl)oxy]-3-sulfamoylphenyl}acetamide]: the IC50 at P2X4 [1] worked out at 4 nM; at mouse P2X4 receptors, 9390 nM; at P2X4 [2] it was 27 nM. The Emax at P2X4 [1] was determined as 67%; on P2X4 [2], 56%. In addition, the “mouse P2X4 Assay B avg Efficacy” value at mouse P2X4 receptors is 41%.

Take `NS(=O)(=O)c1cc(NC(=O)Cc2ccccc2Cl)ccc1OCc1cccc(Cl)c1` [Example 139, N-{4-[(3-Chlorobenzyl)oxy]-3-sulfamoylphenyl}-2-(2-chlorophenyl)acetamide]: at P2X4 [1], the IC50 was 26 nM and the Emax worked out at 82%. In addition, on mouse P2X4 receptors, the IC50 is 612 nM and the “mouse P2X4 Assay B avg Efficacy” value turned out to be 52%. Also, at P2X4 [2], the IC50 came to 43 nM and the Emax stood at 63%.

With `NS(=O)(=O)c1cc(NC(=O)Cc2ccccc2Cl)ccc1OCc1ccccc1` [Example 141, N-[4-(Benzyloxy)-3-sulfamoylphenyl]-2-(2-chlorophenyl)acetamide], the results for the Emax at P2X4 [1] and on P2X4 [2] were 96% and 69%, respectively. The molecule further had an IC50 on mouse P2X4 receptors of 1130 nM. The “mouse P2X4 Assay B avg Efficacy” value on mouse P2X4 receptors was found to be 66%.

With `NS(=O)(=O)c1cc(NC(=O)Cc2ccc(C(F)(F)F)cc2)ccc1OCc1ccccn1` [Example 152, N-[4-(Pyridin-2-ylmethoxy)-3-sulfamoylphenyl]-2-[4-(trifluoromethyl)phenyl]acetamide], the results for the IC50 at P2X4 [1], on mouse P2X4 receptors and at P2X4 [2] were above 25000 nM, above 50000 nM and 431 nM, respectively. Further, the Emax was 47% at P2X4 [1] and 89% on P2X4 [2]. On mouse P2X4 receptors, the “mouse P2X4 Assay B avg Efficacy” value came out at 35%.

With `NS(=O)(=O)c1cc(NC(=O)Cc2ccccc2Cl)ccc1OCCc1cccc(Cl)c1` [Example 156, 2-(2-Chlorophenyl)-N-{4-[2-(3-chlorophenyl)ethoxy]-3-sulfamoylphenyl}acetamide], on P2X4 [1], the IC50 amounted to 12 nM and the Emax is 81%. Also, on mouse P2X4 receptors, the IC50 was above 50000 nM and the “mouse P2X4 Assay B avg Efficacy” value came to 25%. At P2X4 [2], the IC50 is 47 nM and the Emax came to 58%.

For the molecule `NS(=O)(=O)c1cc(NC(=O)Cc2ccccc2Cl)ccc1OCC1CCCC1` [Example 160, 2-(2-Chlorophenyl)-N-[4-(cyclopentylmethoxy)-3-sulfamoylphenyl]acetamide], the IC50 worked out at 10 nM at P2X4 [1], 1030 nM on mouse P2X4 receptors and 40 nM on P2X4 [2]. Besides, the Emax on P2X4 [1] was 71%; at P2X4 [2], 67%. Further, at mouse P2X4 receptors, the “mouse P2X4 Assay B avg Efficacy” value was 62%.

The values are drawn from patent US20180338980A1, “AROMATIC SULFONAMIDE DERIVATIVES” (BAYER PHARMA AKTIENGESELLSCHAFT, priority 2015, published 2018).
